Source: patent US10383838B2, “Concentrated liquid diet” (The Nisshin OilliO Group, Ltd., priority 2008, dated 2019)

Test system: gastric mucosa of rat
Test: Test for investigating irritation of gastric mucosa in rat
Type: in vivo, Wistar rats
Conditions: oral after fasting 18 hrs, dose 2 g/kg BW, stomach observed 1 hour after administration
Procedure: Five male 10-week old Wistar rats having a body weight of about 200 g (Japan SLC, Inc.) as one test group were subjected to tests by administration. […] The amount of the triglyceride administered was 2 g per kg of body weight. After placing at rest for 1 hour following the administration, an incision was made in the abdomen under anesthesia, and the stomach was extirpated. Then, the extirpated stomach was incised along the greater curvature, and the gastric mucosa was washed with physiological saline and visually observed, with use of a loupe as needed. It should be noted that evaluation in connection with the irritation of gastric mucosa was made in accordance with a method described in a document (Yakugaku Zasshi 89 (8): 1114-1118, 1978). The criteria of evaluation are shown below.
(−): Nine or less areas of patchy redness found.
(+): Ten or more areas of patchy redness found, and sum total of each length of erosion being no greater than 2 mm.
(++): Twenty or more areas of patchy redness found, and sum total of each length of erosion being no greater than 10 mm.
(+++): Sum total of each length of ulcer, or erosion being no less than 10 mm.
It is to be noted that when evaluation was made as (−), the number of areas of patchy redness was counted.

SMILES: CCO [Positive Control Group, ethanol]
- Irritation of gastric mucosa: (+++) (Sum total of each length of ulcer, or erosion being no less than 10 mm.)
